Experiments:
[1] = molecular target: Cyclin-dependent kinase 11B (Homo sapiens) (UniProt P21127); conditions: at 10 µM
[2] = molecular target: Tyrosine-protein kinase Fer (Homo sapiens) (UniProt P16591); experiment: Selectivity interaction (KinomeScan (DiscoverX)) EUB0001079a FER; conditions: at 1 µM
Ephrin type-A receptor 4 = Ephrin type-A receptor 4 (Homo sapiens, UniProt P54764); experiment: Selectivity interaction (KinomeScan (DiscoverX)) EUB0000618a EPHA4; conditions: at 10 µM
[3] = molecular target: MAP/microtubule affinity-regulating kinase 3 (Homo sapiens) (UniProt P27448); experiment: Selectivity interaction (KinomeScan (DiscoverX)) EUB0000618a MARK3; conditions: at 10 µM
[4] = test system: Epidermal growth factor receptor (Homo sapiens), P00533 [UNDEFINED MUTATION]; experiment: Selectivity interaction (KinomeScan (DiscoverX)) EUB0000607a EGFR; conditions: at 10 µM
[5] = molecular target: Mitogen-activated protein kinase kinase kinase 8 (Homo sapiens, UniProt P41279); experiment: Selectivity interaction (SelectScreen profiling (Invitrogen)) EUB0000607a MAP3K8; conditions: at 2 µM
[6] = molecular target: Mitogen-activated protein kinase 7 (Homo sapiens) (UniProt Q13164); experiment: Selectivity interaction (KinomeScan (DiscoverX)) EUB0000045b MAPK7
[7] = molecular target: T1, Protein kinase C iota type (Homo sapiens) (UniProt P41743); experiment: Selectivity interaction (KinomeScan (DiscoverX)) EUB0000045b PRKCI
T1 sequence (whole entry): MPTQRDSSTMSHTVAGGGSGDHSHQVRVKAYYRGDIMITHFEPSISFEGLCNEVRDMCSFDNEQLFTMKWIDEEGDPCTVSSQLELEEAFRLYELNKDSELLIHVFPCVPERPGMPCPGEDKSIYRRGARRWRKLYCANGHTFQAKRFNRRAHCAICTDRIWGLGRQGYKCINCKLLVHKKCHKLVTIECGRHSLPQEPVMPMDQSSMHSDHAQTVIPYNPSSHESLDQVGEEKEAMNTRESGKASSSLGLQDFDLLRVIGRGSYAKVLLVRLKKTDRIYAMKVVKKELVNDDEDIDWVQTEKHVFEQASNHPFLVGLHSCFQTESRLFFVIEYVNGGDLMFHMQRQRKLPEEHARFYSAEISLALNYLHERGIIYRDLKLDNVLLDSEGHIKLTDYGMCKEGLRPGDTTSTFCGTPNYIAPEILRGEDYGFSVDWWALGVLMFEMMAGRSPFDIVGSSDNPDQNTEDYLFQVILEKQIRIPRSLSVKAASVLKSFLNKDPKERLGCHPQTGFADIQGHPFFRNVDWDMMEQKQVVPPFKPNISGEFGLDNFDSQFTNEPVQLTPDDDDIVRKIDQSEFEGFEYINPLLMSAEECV

[8] = molecular target: T2, Phosphatidylinositol 4,5-bisphosphate 3-kinase catalytic subunit delta isoform (Homo sapiens) (UniProt O00329); experiment: Selectivity interaction (Kinase panel (KiNativ target engagement assay in Jurkat cells)) EUB0001635a PIK3CD; format: cell-based; conditions: Selectivity number of off-targets 0.0, Selectivity number of targets 233.0, Source Knowledge https://www.sciencedirect.com/science/article/pii/S2451945619300674?via%3Dihub, at 1 µM
T2 sequence (whole entry): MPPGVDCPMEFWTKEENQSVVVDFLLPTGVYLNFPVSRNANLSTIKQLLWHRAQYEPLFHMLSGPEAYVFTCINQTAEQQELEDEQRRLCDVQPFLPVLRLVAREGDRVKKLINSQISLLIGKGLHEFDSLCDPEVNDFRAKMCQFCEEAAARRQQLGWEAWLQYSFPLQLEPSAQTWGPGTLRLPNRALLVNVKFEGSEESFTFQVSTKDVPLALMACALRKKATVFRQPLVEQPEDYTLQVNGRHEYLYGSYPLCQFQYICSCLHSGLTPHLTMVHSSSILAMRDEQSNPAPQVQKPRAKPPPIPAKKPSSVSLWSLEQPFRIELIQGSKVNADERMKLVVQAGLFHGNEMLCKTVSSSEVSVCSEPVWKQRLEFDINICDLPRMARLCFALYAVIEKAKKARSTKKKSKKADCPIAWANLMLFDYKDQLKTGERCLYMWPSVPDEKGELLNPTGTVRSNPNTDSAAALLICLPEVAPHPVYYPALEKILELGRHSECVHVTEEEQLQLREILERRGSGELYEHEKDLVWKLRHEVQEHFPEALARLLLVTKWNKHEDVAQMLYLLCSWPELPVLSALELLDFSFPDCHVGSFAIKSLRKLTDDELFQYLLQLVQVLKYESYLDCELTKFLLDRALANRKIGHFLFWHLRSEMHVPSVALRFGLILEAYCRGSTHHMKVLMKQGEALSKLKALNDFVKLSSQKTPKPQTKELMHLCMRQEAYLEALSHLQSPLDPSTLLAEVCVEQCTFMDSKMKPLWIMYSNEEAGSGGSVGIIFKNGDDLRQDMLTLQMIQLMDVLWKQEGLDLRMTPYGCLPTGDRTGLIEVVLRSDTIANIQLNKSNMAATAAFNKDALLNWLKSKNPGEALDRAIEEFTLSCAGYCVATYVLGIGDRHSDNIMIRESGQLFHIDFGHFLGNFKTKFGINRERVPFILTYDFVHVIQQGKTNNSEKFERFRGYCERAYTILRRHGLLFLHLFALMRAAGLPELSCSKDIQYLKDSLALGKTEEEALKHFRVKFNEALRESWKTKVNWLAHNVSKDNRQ

[9] = molecular target: Serine/threonine-protein kinase PLK1 (Homo sapiens, UniProt P53350); experiment: Selectivity interaction (Kinase panel (KiNativ target engagement assay in Jurkat cells)) EUB0001635a PLK1; format: cell-based; conditions: Selectivity number of off-targets 0.0, Selectivity number of targets 233.0, Source Knowledge https://www.sciencedirect.com/science/article/pii/S2451945619300674?via%3Dihub, at 1 µM
[10] = molecular target: Tyrosine-protein kinase Fgr (Homo sapiens) (UniProt P09769); experiment: Selectivity interaction (KinomeScan (DiscoverX)) EUB0000229b FGR; conditions: at 10 µM
[11] = molecular target: Myosin light chain kinase family member 4 (Homo sapiens, UniProt Q86YV6); experiment: Selectivity interaction (NanoBRET assay (HEK293T cells)) EUB0001550a MYLK4; format: cell-based, HEK-293T
[12] = molecular target: Proto-oncogene tyrosine-protein kinase Src (Homo sapiens, UniProt P12931); experiment: Selectivity interaction (KinomeScan (DiscoverX)) EUB0001868a SRC; conditions: at 1 µM
[13] = molecular target: Ribosomal protein S6 kinase alpha-6 (Homo sapiens, UniProt Q9UK32); experiment: Selectivity interaction (Kinase screening (Nanosyn)) EUB0000604a RPS6KA6
Sequence of Ribosomal protein S6 kinase alpha-6 (Q9UK32 whole entry): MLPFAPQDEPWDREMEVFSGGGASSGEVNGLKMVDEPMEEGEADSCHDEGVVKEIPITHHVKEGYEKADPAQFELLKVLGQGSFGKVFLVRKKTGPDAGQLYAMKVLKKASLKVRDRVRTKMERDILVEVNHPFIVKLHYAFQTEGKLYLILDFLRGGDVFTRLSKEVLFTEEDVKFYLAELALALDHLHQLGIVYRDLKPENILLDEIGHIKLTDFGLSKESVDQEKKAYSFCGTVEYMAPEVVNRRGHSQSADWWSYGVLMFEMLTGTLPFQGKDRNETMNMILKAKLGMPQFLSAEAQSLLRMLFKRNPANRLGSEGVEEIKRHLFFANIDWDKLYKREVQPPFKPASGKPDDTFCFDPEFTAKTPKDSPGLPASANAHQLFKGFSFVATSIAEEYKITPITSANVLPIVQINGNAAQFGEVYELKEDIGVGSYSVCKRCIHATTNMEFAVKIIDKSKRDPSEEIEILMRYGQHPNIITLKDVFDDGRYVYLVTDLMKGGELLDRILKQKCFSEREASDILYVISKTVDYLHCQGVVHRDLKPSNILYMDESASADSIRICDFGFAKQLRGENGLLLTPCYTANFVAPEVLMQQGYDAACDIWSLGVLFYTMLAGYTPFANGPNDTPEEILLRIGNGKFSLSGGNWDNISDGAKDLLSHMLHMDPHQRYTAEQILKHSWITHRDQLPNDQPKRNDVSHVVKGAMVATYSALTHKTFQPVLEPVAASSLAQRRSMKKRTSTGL

Sequence of Mitogen-activated protein kinase 7 (Homo sapiens) (Q13164 2-816 limits assumed): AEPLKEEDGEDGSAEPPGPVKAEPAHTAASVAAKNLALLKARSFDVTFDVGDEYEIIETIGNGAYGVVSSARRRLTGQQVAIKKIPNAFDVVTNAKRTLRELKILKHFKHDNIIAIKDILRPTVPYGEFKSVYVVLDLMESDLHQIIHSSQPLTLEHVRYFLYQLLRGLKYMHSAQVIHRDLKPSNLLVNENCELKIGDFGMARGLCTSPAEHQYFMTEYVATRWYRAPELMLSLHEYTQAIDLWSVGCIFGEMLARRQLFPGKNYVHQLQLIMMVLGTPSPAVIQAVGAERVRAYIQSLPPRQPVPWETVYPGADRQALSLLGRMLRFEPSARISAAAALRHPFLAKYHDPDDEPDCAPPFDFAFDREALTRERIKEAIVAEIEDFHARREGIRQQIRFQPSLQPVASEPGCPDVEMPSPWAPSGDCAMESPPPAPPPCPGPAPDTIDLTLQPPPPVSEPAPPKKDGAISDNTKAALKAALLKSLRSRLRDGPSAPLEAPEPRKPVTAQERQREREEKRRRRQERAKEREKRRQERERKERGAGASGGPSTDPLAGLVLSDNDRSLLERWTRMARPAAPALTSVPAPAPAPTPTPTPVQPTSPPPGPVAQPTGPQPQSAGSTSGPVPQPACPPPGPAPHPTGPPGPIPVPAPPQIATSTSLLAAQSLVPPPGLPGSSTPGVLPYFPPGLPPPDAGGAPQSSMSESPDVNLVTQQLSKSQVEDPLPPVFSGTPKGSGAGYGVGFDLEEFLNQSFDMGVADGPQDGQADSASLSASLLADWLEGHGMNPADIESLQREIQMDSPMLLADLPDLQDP
Sequence of Ephrin type-A receptor 4 (P54764 whole entry): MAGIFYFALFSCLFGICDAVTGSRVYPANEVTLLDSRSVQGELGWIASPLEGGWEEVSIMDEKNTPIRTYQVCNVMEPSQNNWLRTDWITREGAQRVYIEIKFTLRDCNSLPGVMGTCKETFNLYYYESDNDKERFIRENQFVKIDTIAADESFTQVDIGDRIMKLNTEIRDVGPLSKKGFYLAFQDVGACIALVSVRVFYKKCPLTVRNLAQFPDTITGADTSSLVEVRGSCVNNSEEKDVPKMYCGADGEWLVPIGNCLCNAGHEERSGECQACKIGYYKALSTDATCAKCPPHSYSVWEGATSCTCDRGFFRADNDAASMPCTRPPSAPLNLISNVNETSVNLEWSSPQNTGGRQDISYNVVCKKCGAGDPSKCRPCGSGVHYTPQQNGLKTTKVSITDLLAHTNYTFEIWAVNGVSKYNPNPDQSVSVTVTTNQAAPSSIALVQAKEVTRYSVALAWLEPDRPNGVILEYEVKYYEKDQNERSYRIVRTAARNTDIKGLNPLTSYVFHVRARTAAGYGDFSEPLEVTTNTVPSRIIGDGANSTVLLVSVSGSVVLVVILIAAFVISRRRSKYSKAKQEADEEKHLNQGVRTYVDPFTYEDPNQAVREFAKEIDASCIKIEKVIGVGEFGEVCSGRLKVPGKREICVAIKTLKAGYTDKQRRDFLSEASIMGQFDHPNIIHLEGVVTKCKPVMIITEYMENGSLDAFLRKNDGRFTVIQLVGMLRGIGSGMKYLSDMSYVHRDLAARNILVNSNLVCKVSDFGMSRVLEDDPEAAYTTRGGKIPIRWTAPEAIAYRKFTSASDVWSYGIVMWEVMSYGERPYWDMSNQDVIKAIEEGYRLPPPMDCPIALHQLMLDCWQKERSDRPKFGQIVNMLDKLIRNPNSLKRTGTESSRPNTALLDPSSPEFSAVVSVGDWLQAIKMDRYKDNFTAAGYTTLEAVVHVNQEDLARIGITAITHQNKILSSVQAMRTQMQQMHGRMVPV
Sequence of Tyrosine-protein kinase Fgr (Homo sapiens) (P09769 2-529 limits assumed): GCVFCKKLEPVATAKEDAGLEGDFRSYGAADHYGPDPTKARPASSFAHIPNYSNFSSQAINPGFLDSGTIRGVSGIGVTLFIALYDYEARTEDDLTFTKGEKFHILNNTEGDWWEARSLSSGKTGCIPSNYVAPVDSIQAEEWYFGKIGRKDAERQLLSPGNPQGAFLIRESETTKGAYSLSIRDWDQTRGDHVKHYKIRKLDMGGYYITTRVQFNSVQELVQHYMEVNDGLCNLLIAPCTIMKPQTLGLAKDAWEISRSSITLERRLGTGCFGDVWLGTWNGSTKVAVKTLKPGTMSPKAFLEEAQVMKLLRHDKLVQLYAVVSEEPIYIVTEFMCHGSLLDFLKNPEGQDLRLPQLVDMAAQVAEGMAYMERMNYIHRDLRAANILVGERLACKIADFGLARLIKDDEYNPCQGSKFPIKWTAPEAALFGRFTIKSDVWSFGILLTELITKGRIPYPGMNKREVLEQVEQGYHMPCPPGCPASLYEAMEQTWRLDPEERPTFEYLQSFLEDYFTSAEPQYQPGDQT
Sequence of Proto-oncogene tyrosine-protein kinase Src (P12931 2-536 limits assumed): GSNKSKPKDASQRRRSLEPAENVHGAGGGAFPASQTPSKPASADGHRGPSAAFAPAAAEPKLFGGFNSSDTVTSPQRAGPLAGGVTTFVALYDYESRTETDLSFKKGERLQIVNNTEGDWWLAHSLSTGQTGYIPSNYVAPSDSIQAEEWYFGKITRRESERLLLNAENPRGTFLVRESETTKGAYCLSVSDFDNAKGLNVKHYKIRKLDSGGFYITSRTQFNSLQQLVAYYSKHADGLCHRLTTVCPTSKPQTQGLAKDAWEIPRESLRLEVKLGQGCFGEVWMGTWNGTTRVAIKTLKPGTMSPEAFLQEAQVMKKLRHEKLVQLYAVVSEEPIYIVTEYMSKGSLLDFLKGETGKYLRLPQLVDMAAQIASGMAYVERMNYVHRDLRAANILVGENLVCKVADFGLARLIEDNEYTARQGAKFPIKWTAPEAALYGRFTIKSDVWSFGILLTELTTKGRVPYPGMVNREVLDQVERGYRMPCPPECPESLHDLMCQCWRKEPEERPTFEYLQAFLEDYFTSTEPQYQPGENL
Sequence of Epidermal growth factor receptor (Homo sapiens), P00533 [UNDEFINED MUTATION] (P00533 whole entry, looked up, change not shown): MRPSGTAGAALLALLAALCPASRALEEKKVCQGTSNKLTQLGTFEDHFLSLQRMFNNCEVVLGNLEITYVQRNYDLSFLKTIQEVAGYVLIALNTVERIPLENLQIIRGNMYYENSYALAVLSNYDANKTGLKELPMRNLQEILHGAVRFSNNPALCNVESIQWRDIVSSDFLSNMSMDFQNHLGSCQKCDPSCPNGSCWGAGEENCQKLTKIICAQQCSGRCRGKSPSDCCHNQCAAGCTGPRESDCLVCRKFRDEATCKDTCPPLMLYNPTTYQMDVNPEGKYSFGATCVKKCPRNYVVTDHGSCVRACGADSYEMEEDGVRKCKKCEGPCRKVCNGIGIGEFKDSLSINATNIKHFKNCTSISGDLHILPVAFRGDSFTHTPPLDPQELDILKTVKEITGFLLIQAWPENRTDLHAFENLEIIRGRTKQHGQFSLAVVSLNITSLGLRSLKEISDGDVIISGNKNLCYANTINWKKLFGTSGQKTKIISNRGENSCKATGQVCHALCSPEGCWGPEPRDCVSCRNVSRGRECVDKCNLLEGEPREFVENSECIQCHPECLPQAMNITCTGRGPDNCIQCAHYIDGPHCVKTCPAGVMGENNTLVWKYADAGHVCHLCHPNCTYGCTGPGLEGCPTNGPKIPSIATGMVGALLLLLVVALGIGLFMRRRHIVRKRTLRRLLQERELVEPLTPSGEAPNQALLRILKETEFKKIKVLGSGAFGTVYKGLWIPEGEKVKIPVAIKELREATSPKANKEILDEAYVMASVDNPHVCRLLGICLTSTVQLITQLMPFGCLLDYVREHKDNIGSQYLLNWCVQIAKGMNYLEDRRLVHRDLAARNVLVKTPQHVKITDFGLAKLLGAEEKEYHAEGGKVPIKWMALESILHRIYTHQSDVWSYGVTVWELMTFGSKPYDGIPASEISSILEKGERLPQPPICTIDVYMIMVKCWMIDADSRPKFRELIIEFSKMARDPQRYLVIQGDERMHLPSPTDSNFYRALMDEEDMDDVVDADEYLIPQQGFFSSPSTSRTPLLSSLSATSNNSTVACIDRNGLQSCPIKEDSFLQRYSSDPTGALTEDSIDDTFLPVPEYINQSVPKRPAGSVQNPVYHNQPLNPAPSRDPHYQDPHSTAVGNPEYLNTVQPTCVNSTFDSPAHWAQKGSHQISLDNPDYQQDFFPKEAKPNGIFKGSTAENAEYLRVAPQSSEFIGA

CCN(CC)CCCCNc1ncc2cc(-c3cc(OC)cc(OC)c3)c(NC(=O)NC(C)(C)C)nc2n1
% of control [1]: 100%

Nc1cnc(N2CCc3cc(S(=O)(=O)Nc4c(F)cc(Cl)cc4F)cc(N4CCCC4=O)c32)nc1 [TP-020n]
% of control [2]: 100%

O[C@H]1CC[C@H](Nc2ncc3nc(Nc4c(F)cc(F)cc4F)n([C@H]4CCOC4)c3n2)CC1
% of control (Ephrin type-A receptor 4): 93%
% of control [3]: 97%

CNC(=O)Nc1ccc(-c2nc(N3CC4CCC(C3)O4)c3cnn(C4CCC5(CC4)OCCO5)c3n2)cc1
% of control [4]: 50%
% of inhibition [5]: 1%

C=CC(=O)Nc1cc(-n2c(=O)ccc3cnc4ccc(-c5ccc(NS(C)(=O)=O)cc5)cc4c32)ccc1C
% of control ([6]; at 1 µM): 100%
% of control ([6]; at 10 µM): 100%
% of control ([7]; at 1 µM): 84%
% of control ([7]; at 10 µM): 64%

C=CC(=O)Nc1ccc(C(=O)Nc2[nH]nc3c2CN(C(=O)N[C@H](CN(C)C)c2ccccc2)C3(C)C)cc1
% of engagement [8]: -10.2%
% of engagement [9]: 5%

COc1cc(N(C)c2ccnc3ccc(C(F)(F)F)cc23)cc(OC)c1OC
% binding [10]: 97%

CN(C)CC#Cc1ccc2[nH]c3c(c2c1)-c1nc(N)ncc1CCC3
IC50 [11]: 270 nM

Cc1cc(-c2ccnc(Nc3cnn(C)c3)n2)ccc1CNC(=O)N1CC(OC(C)C)C1
% of control [12]: 31%

Cc1cnc(Nc2ccc(F)cc2Cl)nc1-c1c[nH]c(C(=O)N[C@H](CO)c2cccc(Cl)c2)c1
% of inhibition [13]: 11%
